Measured values taken from patent US5958966A, “Treatment of aberrant cellular states with biomodulators” (University of New Mexico, priority 1995, dated 1999).
“Also recorded” adds a separate entry of the source.

Experiments:
[1] = system: B16 melanoma cells; assay: effect of swainsonine on cytotoxic T-lymphocytes (51Cr release); type: in vivo, mouse
Method: The cytotoxicity assay used two targets: YAC-1, for natural killer cell targets and B16 melanoma cells, for cytolytic T-cell targets. The YAC-1 cells were labelled in GKN (ucose/KCl/NaCl) with ^51 Cr (NEN-DuPont, 400-1200 Ci/g activity) for 60 min. The B16's were ^51 Cr labelled in complete α-MEM media for 60 min. Both targets were washed twice through whole fetal calf serum to remove damaged and dead cells and then suspended in complete RPMI at a final concentration of 1×10^5 cells/ml. The spleen cells (effector cells) were plated in round bottom 96 well trays starting at 1×10^7 cells/ml (100 μl/well), using a halving dilution that provided splenocyte concentrations of 10^6, 5×10^5, 2.5×10^5, 1.25×10^5, 6.25×10^4 and 3.125×10^4, all done in triplicate. The target cells were added at 1×10^4 cell/100 μl/well; this gave an effector:target cell ratio ranging from 100:1 to 3:1. Controls included spontaneous ^51 Cr release and 100% lysis (10% triton treatment). The trays were centrifuged at 50×g for 5 min. and incubated in a CO2 incubator at 37° C. for 16 hours. The trays were spun again at 50×g for 5 minutes and 100 μl removed from each well for counting. A Packard gamma counter (United Technologies) was used for counting. Each sample was counted for 1 min. giving a 5% counting efficiency. The following equation was used to determine percent lysis.
The effector:target ratios were then plotted against percent lysis and a simple line equation was determined for each treatment group. The slope of this line was then used to determine the total effector kill efficiency.
The ^51 Cr cytotoxicity assay was also run with the B16 melanoma cells as the target and the splenocytes from the same mice as above as the effector cells. The baseline mice (no tumor/no Sw) and the control mice (tumor/no SW) had very similar line shapes and slopes. There were significant differences (p=0.03) between the presence and absence of tumor (see Table in FIG. 68).

[2] = system: solid tumor models; details: Dennis 1986, 1989, 1990; cited from earlier work
[3] = system: plaque forming cells; details: cited from earlier work
[4] = system: lymphoid IL-2R / LAK; details: Bowlin et al. and further work; listed as Sw; cited from earlier work
[5] = system: canine glioma (CG) cells; assay: proton NMR T-2* linewidth of canine glioma cells; type: cell-based; design: T-2* linewidth / T-2* linewidth after treatment withdrawal / T-2* linewidth after t-butanol extraction: unit not given here; details: for T-2* linewidth after treatment withdrawal: 4 weeks treatment then 1 week without, mean ± SD of 3; for T-2* linewidth after t-butanol extraction: treated CG cells
Method: The cells used for all these experiments are between passage 30 and passage 75.
The cell surface oligosaccharide display was assessed by methods developed previously. In brief, cells from a sub-culturing were aliquotted into 96 well trays at 5×10^5 cells per ml, 100 μL aliquots. […] Optimal lectin concentrations (5 μg/ml)were used to give 80 to 90% saturation of the available sites. Three carbohydrate ligands at 10 μg concentrations in triplicate or quadruplicate were then used to prepare competition curves for the lectin binding. The Bound over Free (B/F) ratio was calculated and the Ligand microprocessor program was used to determine the optimal fit of the data to a polynomial generated model. The Gibb's Free Energy (GFE) was calculated from the Scatchard data on the competition assay by the following equation: GFE=-RT 1n Kequit. The proton NMR linewidth measurements were conducted as described previously.

[6] = system: canine glioma (CG) cells; assay: cell surface oligosaccharide display of canine glioma cells (lectin binding, Scatchard, Gibb's Free Energy); type: cell-based; details: control 14.9 kcal
Text: Taken together these affinity differences account for almost 10 kcal of additional binding energy retrievable from interactions in the case of the IMR-90s which is unavailable to the CGs. […] This treatment regimen results in an increase in the Tg of the cells as well as changes in the proton linewidth of unfrozen water (shown below). […] This display more closely resembles that of the growth regulated IMR-90s. It should be noted that the actual lines on these figures are visual estimates however, the data in the boxes are calculated values. It is these values that are used to estimate the GFE for comparison purposes.
The cell surface oligosaccharide display was assessed by methods developed previously. In brief, cells from a sub-culturing were aliquotted into 96 well trays at 5×10^5 cells per ml, 100 μL aliquots. After 16 hours of culture the cells were washed, fixed, and blocked with 0.1% BSA/PBS. Optimal lectin concentrations (5 μg/ml)were used to give 80 to 90% saturation of the available sites. Three carbohydrate ligands at 10 μg concentrations in triplicate or quadruplicate were then used to prepare competition curves for the lectin binding. The Bound over Free (B/F) ratio was calculated and the Ligand microprocessor program was used to determine the optimal fit of the data to a polynomial generated model. The Gibb's Free Energy (GFE) was calculated from the Scatchard data on the competition assay by the following equation: GFE=-RT 1n Kequit. The proton NMR linewidth measurements were conducted as described previously.

O[C@H]1[C@H]2[C@H](O)CCCN2C[C@H]1O [Swainsonine, swainsonine]
CTL activity in words ([1]; 0.1 μg Sw for 3 weeks, listed as Sw): greater than that of the control and of the 0.01 μg treated mice; also recorded: significant increase in the CTL activity | increase in line slope above baseline ([1]; 0.1 μg Sw, day 7 tumor): 228% | increase in line slope over control mice with day 7 tumor ([1]; 0.1 μg Sw, day 7 tumor): 127% | growth in other solid tumor models [2]: delay growth in several other solid tumor models | PFC numbers, SW alone ([3]; SW alone): no changes in PFC numbers | antibody formation after immunosuppressive factor ([3]; Sw 3.7-100 mg/kg i.p. 5 days): return to normal levels of antibody production | effect on IL-2R expression, IL-2 induced proliferation and LAK induction [4]: augmented lymphoid IL-2R expression and IL-2 induced proliferation following mitogenic stimulation; also recorded: augmented the LAK induction at normally sub-optimal stimulation doses | T-2* linewidth after treatment withdrawal ([5]; 213 k): 520 ± 26 | T-2* linewidth after treatment withdrawal ([5]; 223 k): 510 ± 18 | T-2* linewidth after treatment withdrawal ([5]; 233 k): 430 ± 15 | T-2* linewidth after treatment withdrawal ([5]; 243 k): 360 ± 10 | linewidth after withdrawal versus untreated control ([5]; 4 weeks treatment, 1 week withdrawal): still significantly different from control values | linewidth change ([5]; CG cells, biomodulator treatment versus control, listed as Sw): significant (P>0.01) decreases in linewidth; also recorded: higher level of linewidth reduction than the PWM treatment | T-2* linewidth ([5]; Four week of treatment, 213 k, mean ± SD of triplicate): 480 ± 35 | T-2* linewidth ([5]; Four week of treatment, 223 k, mean ± SD of triplicate): 330 ± 40 | T-2* linewidth ([5]; Four week of treatment, 233 k, mean ± SD of triplicate): 300 ± 8 | T-2* linewidth ([5]; Four week of treatment, 243 k, mean ± SD of triplicate): 230 ± 10 | T-2* linewidth ([5]; One week of treatment, 213 k): 580 | T-2* linewidth ([5]; One week of treatment, 223 k): 325 | T-2* linewidth ([5]; One week of treatment, 233 k): 285 | T-2* linewidth ([5]; One week of treatment, 243 k): 265 | T-2* linewidth after t-butanol extraction ([5]; 213 k, extracted control 367 ± 15): 316 ± 33 | T-2* linewidth after t-butanol extraction ([5]; 223 k, extracted control 337 ± 29): 271 ± 13 | T-2* linewidth after t-butanol extraction ([5]; 233 k, extracted control 299 ± 30): 243 ± 29 | T-2* linewidth after t-butanol extraction ([5]; 243 k, extracted control 229 ± 9): 194 ± 7 | Gibb's Free Energy ([6]; 2 cycles): 15.2 kcal | Gibb's Free Energy ([6]; 4 cycles): 20.5 kcal | Gibb's Free Energy ([6]; 7 cycles): 21.9 kcal
